Results taken from ChEMBL document CHEMBL3991601, “The target landscape of clinical kinase drugs” (Science, 2017).
Activity calls are given as the source filed them. Cut-off read from the data, not from the text of the source, for most assays here: actives have a measured Kd and inactives only a lower limit.

Experiments:
[1] = molecular target: High affinity nerve growth factor receptor (Homo sapiens, UniProt P04629)
Ephrin type-B receptor 2 = molecular target: T1, Ephrin type-B receptor 2 (Homo sapiens, UniProt P29323)
T1 sequence (P29323 whole entry): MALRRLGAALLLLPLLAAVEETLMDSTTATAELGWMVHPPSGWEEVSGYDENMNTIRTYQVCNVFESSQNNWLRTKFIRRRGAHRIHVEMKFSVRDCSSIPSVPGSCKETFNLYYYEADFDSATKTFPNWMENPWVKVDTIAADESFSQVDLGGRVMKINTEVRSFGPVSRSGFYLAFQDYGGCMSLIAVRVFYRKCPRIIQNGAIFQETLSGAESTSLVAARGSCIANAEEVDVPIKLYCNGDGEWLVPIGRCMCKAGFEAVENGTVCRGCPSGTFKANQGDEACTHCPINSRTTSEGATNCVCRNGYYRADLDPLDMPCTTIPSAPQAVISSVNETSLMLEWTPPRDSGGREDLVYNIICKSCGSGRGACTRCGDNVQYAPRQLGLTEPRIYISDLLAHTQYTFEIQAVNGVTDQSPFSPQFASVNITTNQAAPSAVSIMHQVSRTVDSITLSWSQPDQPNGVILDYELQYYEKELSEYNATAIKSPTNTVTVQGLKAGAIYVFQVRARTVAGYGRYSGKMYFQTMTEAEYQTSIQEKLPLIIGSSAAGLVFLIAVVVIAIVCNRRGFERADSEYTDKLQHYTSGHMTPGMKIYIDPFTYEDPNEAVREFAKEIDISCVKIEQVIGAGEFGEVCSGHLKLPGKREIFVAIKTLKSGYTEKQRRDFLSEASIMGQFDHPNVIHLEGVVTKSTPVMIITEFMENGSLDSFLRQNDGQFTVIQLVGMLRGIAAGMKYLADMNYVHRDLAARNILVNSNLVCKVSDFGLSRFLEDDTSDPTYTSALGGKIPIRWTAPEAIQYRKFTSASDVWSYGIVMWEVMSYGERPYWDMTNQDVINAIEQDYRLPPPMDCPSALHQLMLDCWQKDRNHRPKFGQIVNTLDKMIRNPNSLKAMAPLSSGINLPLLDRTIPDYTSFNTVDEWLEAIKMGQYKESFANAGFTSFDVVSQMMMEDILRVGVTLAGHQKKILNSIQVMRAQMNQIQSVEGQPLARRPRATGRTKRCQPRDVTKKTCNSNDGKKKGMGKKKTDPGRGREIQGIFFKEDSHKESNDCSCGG

Ephrin type-B receptor 6 = molecular target: T2, Ephrin type-B receptor 6 (Homo sapiens, UniProt O15197)
T2 sequence (O15197 whole entry): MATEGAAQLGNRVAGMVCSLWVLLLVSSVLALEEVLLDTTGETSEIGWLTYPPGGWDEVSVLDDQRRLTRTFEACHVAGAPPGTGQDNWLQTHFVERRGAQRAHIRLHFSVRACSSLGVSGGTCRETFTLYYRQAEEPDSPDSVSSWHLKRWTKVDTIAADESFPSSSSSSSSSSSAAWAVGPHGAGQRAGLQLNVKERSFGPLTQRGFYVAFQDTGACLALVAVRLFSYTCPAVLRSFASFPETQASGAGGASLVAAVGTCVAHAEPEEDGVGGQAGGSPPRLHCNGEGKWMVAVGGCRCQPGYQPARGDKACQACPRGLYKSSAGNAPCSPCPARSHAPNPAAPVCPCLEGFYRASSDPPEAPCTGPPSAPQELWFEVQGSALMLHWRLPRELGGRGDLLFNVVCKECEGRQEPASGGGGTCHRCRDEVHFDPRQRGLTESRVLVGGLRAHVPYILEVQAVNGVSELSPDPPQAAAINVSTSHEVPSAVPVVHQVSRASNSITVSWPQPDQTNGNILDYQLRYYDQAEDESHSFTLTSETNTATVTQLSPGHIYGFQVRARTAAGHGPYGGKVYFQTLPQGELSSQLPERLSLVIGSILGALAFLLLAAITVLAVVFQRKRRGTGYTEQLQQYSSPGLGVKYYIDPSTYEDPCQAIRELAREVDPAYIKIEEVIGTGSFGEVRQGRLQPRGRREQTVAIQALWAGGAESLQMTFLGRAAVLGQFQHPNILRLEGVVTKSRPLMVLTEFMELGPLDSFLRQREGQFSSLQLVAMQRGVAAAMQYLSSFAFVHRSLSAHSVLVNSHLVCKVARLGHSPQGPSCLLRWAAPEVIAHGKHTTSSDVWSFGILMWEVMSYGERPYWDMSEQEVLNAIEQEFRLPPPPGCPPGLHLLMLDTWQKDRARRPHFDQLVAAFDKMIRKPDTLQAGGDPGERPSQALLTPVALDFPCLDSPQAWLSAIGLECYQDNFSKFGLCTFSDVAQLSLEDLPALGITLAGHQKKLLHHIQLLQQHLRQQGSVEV

[2] = molecular target: G protein-coupled receptor kinase 6 (Homo sapiens, UniProt P43250)
[3] = molecular target: Cyclin-dependent kinase 13 (Homo sapiens, UniProt Q14004)
[4] = molecular target: T3, Serine/threonine-protein kinase 4 (Homo sapiens, UniProt Q13043)
T3 sequence (Q13043 whole entry): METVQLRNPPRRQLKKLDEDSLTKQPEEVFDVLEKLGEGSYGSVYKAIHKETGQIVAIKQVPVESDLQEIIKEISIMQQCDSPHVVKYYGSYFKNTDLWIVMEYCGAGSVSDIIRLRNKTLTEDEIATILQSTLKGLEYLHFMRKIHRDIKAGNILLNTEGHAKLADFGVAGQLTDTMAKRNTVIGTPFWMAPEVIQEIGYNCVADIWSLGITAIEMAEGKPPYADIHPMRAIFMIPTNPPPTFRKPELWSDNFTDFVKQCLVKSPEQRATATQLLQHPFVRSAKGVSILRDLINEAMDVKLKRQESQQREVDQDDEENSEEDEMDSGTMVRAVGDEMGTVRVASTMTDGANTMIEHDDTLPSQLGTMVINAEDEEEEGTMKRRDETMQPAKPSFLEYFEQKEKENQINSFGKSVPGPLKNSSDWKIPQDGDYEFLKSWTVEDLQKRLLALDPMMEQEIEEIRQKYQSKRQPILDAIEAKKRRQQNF

[5] = molecular target: BMP-2-inducible protein kinase (Homo sapiens, UniProt Q9NSY1)
Note: in the data inactive means no Kd found up to 30 µM.

Chain of G protein-coupled receptor kinase 6 (P43250 whole entry): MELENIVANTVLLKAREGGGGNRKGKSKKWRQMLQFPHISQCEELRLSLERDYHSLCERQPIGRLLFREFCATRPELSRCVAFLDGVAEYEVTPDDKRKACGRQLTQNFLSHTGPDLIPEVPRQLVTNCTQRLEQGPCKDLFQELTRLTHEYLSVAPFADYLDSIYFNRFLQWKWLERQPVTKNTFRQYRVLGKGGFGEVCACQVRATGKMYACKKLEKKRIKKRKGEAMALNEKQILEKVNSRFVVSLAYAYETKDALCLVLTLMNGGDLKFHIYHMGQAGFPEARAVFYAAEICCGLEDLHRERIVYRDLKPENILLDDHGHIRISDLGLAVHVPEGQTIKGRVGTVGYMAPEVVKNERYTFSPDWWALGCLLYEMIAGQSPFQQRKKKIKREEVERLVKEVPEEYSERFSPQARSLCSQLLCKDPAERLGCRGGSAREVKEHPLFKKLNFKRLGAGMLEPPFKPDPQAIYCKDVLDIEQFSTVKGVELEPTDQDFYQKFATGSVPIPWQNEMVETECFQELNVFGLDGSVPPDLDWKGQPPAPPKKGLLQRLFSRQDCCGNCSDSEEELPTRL
Chain of High affinity nerve growth factor receptor (P04629 whole entry): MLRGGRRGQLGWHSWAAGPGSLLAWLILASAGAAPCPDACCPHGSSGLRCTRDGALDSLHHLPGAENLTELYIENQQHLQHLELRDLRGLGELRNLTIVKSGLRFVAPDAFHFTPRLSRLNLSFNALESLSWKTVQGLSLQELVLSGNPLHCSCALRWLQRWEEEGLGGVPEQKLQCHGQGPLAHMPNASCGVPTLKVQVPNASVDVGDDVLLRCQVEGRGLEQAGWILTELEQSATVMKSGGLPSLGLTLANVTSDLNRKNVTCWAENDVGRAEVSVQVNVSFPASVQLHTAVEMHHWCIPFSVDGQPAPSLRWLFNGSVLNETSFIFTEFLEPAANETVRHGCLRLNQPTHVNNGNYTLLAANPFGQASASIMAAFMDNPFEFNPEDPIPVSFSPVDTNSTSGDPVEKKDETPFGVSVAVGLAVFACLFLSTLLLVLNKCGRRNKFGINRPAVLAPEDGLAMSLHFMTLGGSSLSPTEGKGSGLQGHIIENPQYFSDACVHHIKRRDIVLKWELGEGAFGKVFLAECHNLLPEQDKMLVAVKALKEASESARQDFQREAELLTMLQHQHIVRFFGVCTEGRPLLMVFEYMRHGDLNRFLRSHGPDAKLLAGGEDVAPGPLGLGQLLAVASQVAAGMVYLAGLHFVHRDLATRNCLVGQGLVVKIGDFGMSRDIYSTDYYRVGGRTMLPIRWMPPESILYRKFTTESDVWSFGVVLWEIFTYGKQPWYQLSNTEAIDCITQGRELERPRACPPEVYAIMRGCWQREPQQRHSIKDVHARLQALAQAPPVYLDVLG
Chain of Cyclin-dependent kinase 13 (Q14004 whole entry): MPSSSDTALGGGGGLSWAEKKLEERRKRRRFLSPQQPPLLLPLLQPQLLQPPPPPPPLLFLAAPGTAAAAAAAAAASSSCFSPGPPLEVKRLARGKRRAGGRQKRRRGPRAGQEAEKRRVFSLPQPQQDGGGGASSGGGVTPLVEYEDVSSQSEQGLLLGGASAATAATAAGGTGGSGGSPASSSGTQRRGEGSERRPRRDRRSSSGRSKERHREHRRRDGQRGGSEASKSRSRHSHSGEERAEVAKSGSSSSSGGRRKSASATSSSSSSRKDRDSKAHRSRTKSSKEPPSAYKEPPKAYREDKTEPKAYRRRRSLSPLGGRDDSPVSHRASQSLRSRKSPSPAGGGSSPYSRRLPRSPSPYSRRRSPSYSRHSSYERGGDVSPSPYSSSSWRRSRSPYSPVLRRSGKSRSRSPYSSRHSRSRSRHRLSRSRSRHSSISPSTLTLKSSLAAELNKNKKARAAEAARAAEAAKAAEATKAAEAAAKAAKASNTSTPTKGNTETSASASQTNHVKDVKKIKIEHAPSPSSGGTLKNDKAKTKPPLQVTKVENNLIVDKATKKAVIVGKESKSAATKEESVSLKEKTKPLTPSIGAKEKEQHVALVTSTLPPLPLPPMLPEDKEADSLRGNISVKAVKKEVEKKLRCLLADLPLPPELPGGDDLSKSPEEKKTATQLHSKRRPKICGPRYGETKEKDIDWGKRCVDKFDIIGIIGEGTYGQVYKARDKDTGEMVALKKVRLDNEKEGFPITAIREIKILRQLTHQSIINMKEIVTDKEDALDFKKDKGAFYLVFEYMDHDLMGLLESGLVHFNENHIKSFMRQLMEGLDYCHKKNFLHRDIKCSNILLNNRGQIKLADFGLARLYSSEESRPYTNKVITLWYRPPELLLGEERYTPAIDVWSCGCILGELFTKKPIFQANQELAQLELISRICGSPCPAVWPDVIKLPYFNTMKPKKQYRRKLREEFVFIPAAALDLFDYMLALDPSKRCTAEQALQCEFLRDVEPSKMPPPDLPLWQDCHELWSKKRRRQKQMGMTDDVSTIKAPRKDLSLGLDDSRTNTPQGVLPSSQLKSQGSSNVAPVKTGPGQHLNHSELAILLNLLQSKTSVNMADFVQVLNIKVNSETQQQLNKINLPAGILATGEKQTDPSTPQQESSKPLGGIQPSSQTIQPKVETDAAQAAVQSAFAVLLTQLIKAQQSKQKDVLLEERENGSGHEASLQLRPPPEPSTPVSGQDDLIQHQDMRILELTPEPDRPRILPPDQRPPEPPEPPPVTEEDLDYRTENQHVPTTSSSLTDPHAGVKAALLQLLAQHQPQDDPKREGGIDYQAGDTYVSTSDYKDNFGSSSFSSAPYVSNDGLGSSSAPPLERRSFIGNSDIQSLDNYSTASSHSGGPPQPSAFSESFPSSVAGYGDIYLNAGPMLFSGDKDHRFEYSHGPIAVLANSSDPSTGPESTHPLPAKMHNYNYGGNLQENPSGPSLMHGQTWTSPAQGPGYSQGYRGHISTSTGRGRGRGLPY
Chain of BMP-2-inducible protein kinase (Q9NSY1 whole entry): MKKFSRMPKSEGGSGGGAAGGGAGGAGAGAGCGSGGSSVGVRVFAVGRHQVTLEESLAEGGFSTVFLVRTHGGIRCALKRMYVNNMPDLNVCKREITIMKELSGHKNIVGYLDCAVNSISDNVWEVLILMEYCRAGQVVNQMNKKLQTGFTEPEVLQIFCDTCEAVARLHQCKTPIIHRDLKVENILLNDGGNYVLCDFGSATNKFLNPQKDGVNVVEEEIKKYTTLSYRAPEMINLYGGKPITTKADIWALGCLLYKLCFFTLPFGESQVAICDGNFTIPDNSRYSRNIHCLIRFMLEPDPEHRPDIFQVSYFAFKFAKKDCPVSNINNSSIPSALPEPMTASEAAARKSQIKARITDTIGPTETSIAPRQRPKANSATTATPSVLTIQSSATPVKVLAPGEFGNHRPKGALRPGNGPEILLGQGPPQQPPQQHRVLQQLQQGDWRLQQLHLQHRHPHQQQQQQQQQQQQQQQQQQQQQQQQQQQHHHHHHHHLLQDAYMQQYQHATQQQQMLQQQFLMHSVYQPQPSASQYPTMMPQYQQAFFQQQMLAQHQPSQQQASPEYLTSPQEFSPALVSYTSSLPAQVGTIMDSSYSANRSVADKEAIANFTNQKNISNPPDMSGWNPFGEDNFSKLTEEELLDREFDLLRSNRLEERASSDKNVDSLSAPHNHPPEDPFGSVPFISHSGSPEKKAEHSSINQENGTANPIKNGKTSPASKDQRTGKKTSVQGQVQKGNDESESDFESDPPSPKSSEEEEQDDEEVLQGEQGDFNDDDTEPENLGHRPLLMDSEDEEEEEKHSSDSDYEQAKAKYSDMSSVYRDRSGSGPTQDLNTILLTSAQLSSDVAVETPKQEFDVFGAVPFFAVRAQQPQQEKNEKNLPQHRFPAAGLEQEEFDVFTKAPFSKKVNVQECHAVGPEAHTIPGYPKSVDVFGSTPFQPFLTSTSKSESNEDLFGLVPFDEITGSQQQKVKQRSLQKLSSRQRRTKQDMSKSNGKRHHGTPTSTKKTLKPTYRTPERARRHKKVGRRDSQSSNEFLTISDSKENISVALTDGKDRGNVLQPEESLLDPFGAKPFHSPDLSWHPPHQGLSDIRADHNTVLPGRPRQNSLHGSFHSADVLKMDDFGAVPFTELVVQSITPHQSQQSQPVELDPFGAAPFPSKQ

Kd [1] | Kd (Ephrin type-B receptor 2) | Kd (Ephrin type-B receptor 6) | Kd [2] | Kd [3] | Kd [4] | Kd [5] | SMILES
> 30 µM (inactive) | 0.448 µM (active) | 0.259 µM | > 30 µM (inactive) | > 30 µM (inactive) | > 30 µM (inactive) | > 30 µM (inactive) | COc1cc2c(Nc3ccc(Cl)c(Cl)c3F)ncnc2cc1OC[C@@H]1C[C@@H]2CN(C)C[C@@H]2C1 [TESEVATINIB]
> 30 µM (inactive) | > 30 µM (inactive) | > 30 µM (inactive) | > 30 µM (inactive) | > 30 µM (inactive) | > 30 µM (inactive) | > 30 µM (inactive) | O=C(Cc1ccc(-c2ccc(OCCN3CCOCC3)cc2)cn1)NCc1ccccc1 [TIRBANIBULIN]
> 30 µM (inactive) | > 30 µM (inactive) | > 30 µM (inactive) | > 30 µM (inactive) | > 30 µM (inactive) | > 30 µM (inactive) | > 30 µM (inactive) | O=C1NC(=O)[C@@H](c2cn3c4c(cccc24)CCC3)[C@@H]1c1c[nH]c2ccccc12 [TIVANTINIB]
> 30 µM (inactive) | > 30 µM (inactive) | > 30 µM (inactive) | > 30 µM (inactive) | > 30 µM (inactive) | > 30 µM (inactive) | 0.179 µM (active) | C[C@@H](N)c1ccc(C(=O)Nc2ccnc3[nH]ccc23)cc1 [Y-39983]

SMILES | Kd [1] | Kd (Ephrin type-B receptor 2) | Kd (Ephrin type-B receptor 6) | Kd [2] | Kd [3] | Kd [4] | Kd [5]
Cc1cc(Nc2ncnc3ccc(NC4=NC(C)(C)CO4)cc23)ccc1Oc1ccn2ncnc2c1 [TUCATINIB] | > 30 µM (inactive) | > 30 µM (inactive) | > 30 µM (inactive) | > 30 µM (inactive) | > 30 µM (inactive) | > 30 µM (inactive) | > 30 µM (inactive)
